Experimental data: ChEMBL document CHEMBL5150064 (J Med Chem, 2022)
Values after ≈ are worked out from the molar mass of the structure shown.

Legend:
[1] = Lipophilicity, logD of compound in 1-Octanol/PBS at pH 7.4 by LC-MS/MS method; type: physicochemical
[2] = Kinetic solubility of the compound at pH 7.4; type: physicochemical; settings: buffer, read-out: Kinetic_solubility
[3] = target: Phosphatidylinositol 4,5-bisphosphate 3-kinase catalytic subunit alpha isoform (Homo sapiens, UniProt P42336); test: Inhibition of PI3Kalpha (unknown origin) using PIP2:3PS as substrate in presence of ATP measured after 120 mins by ADP-Glo assay
Sequence of Phosphatidylinositol 4,5-bisphosphate 3-kinase catalytic subunit alpha isoform (P42336 whole entry, canonical isoform): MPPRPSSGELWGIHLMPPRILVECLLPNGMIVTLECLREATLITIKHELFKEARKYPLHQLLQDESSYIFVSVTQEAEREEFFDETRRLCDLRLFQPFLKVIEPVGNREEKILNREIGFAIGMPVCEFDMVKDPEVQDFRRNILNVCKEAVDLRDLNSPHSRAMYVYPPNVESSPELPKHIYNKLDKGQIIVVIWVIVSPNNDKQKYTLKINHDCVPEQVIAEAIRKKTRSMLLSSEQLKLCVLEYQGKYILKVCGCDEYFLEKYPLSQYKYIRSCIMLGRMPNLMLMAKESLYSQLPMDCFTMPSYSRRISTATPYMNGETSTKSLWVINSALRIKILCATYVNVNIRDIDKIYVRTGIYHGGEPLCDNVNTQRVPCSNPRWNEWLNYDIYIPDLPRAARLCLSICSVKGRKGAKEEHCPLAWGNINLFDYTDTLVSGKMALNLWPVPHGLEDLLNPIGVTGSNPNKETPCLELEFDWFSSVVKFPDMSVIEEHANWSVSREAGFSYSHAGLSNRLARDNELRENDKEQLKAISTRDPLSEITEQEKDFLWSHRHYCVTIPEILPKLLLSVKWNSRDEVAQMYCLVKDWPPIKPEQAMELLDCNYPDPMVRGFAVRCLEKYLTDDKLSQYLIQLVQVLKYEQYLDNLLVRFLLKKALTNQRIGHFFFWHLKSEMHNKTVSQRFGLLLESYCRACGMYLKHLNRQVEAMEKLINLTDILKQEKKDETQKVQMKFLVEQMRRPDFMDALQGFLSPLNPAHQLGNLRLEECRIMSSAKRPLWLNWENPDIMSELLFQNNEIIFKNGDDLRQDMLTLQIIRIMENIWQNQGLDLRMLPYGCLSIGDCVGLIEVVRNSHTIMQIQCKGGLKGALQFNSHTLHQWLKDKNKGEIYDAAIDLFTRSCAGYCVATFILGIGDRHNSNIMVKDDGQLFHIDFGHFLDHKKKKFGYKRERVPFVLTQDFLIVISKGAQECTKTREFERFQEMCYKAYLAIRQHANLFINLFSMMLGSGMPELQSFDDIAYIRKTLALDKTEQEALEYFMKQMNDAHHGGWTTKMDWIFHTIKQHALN

Homo sapiens = species: Homo sapiens; test: Selectivity ratio of Ki for PI3Kdelta (unknown origin) to Ki for PI3Kalpha (unknown origin)
[4] = Apparent permeability across apical to basolateral side in MDCK cells at 10 uM measured upto 180 mins by LC-MS/MS method; type: ADME, cell-based, Canis lupus familiaris; settings: dog
[5] = Clearance in Sprague-Dawley rat plasma at 1 mg/kg, iv measured upto 8 hrs by LC-MS/MS analysis; type: ADME, organism-based

logD [1] | solubility kinetic [2] [µM] | Ki [3] [nM] | Ratio Ki (Homo sapiens) | Papp A→B at 3 h, 10 µM [4] [×10⁻⁶ cm/s] | clearance [5] [mL/min/kg] | SMILES
0.7 | 65 (≈ 25.8 µg/mL) | 2.52 | 8 |  |  | NC(=O)[C@@H]1CCCN1c1ccc2c(c1)OCCn1cc(N3CCOCC3=O)nc1-2
 |  |  | 52 |  |  | C[C@H](Oc1ccc2c(c1)OCCn1cc(N3C(=O)OC[C@H]3C(F)F)nc1-2)C(N)=O
0.8 | 137 (≈ 58.6 µg/mL) | 3.24 | 8 |  |  | COC[C@@H]1COC(=O)N1c1cn2c(n1)-c1ccc(N3CCC[C@H]3C(N)=O)cc1OCC2
2.2 |  |  | 14 |  |  | C[C@H](Oc1ccc2c(c1)OCCn1cc(-c3ncnn3CC(F)(F)F)nc1-2)C(N)=O
0.7 |  |  |  | 0.8 | 63 | NC(=O)[C@@H](Nc1ccc2c(c1)OCCn1cc(N3C(=O)OC[C@H]3CF)nc1-2)C1CC1
 |  | 30.3 | 9 |  |  | NC(=O)[C@@H]1CCCN1c1ccc2c(c1)OCCn1cc(N3CCCOC3=O)nc1-2
0.9 | 154 (≈ 63.4 µg/mL) | 3.15 | 4 | 2.6 |  | CO[C@H]1CCN(c2cn3c(n2)-c2ccc(N4CCC[C@H]4C(N)=O)cc2OCC3)C1=O
 |  | 2.97 | 13 |  |  | NC(=O)[C@@H]1COCCN1c1ccc2c(c1)OCCn1cc(N3C(=O)OC[C@H]3C(F)(F)F)nc1-2
0.7 | 114 (≈ 48.4 µg/mL) | 0.681 | 5 | 0.3 |  | CC1(C)C(=O)NC(=O)N1c1cn2c(n1)-c1ccc(N3CCC[C@H]3C(N)=O)cc1OCC2
1.8 | 131 (≈ 55.7 µg/mL) | 0.042 | 22 | 8.4 |  | CC(C)[C@@H]1COC(=O)N1c1cn2c(n1)-c1ccc(N3CCC[C@H]3C(N)=O)cc1OCC2
0.7 | 11 (≈ 4.53 µg/mL) | 0.32 | 15 |  |  | NC(=O)[C@@H]1CCCN1c1ccc2c(c1)OCCn1cc(N3CCCOCC3=O)nc1-2
1.1 | 20 (≈ 7.95 µg/mL) | 6.49 | 6 |  |  | C[C@H]1CN(c2cn3c(n2)-c2ccc(N4CCC[C@H]4C(N)=O)cc2OCC3)C(=O)O1
 |  | 0.289 | 25 |  |  | NC(=O)[C@@H]1[C@H](F)CCN1c1ccc2c(c1)OCCn1cc(N3C(=O)OC[C@H]3C(F)(F)F)nc1-2
0.7 | 44 (≈ 18.1 µg/mL) | 3.82 | 6 |  |  | NC(=O)[C@@H]1CCCN1c1ccc2c(c1)OCCn1cc(N3CCOCCC3=O)nc1-2
1.5 | 92 (≈ 38.9 µg/mL) | 0.026 | 8 | 0.3 |  | CC(C)n1nc(N)nc1-c1cn2c(n1)-c1ccc(N3CCC[C@H]3C(N)=O)cc1OCC2
 |  | 0.323 | 182 |  |  | NC(=O)[C@@H](Nc1ccc2c(c1)OCCn1cc(N3C(=O)OC[C@H]3C(F)(F)F)nc1-2)C1CCC1
1.2 | 2 (≈ 0.867 µg/mL) | 0.44 | 7 |  |  | NC(=O)[C@@H]1CCCN1c1ccc2c(c1)OCCn1cc(N3CCn4nccc4C3=O)nc1-2
 |  | 0.097 | 27 |  |  | CO[C@@H]1CCN(c2ccc3c(c2)OCCn2cc(N4C(=O)OC[C@H]4C(F)(F)F)nc2-3)[C@@H]1C(N)=O
1.1 | 52 (≈ 20.7 µg/mL) | 11.5 | 15 |  |  | C[C@@H]1CN(c2cn3c(n2)-c2ccc(N4CCC[C@H]4C(N)=O)cc2OCC3)C(=O)O1
0.6 | 200 (≈ 76.7 µg/mL) | 5.75 | 15 | 3.1 |  | NC(=O)[C@@H]1CCCN1c1ccc2c(c1)OCCn1cc(N3CCOC3=O)nc1-2
1.6 |  | 0.8 |  |  |  | NC(=O)[C@@H]1CCCN1c1ccc2c(c1)OCCn1cc(N3C(=O)CC[C@H]3C(F)(F)F)nc1-2
